Paper PMC8175851, “Effects of Genetic Polymorphism in CYP2D6, CYP2C19, and the Organic Cation Transporter OCT1 on Amitriptyline Pharmacokinetics in Healthy Volunteers and Depressive Disorder Patients” (Frontiers in Pharmacology, 2021)
Like-named read-outs stand apart in the source and are kept apart here.

Test: Pharmacokinetics of AT and NT in healthy volunteers after a single dose of 25 mg amitriptyline
Assay type: in vivo, human
Details: human, plasma, po, 25 mg, single oral 25 mg AT; for Cmax: read-out: Cmax
Excerpt: In order to enrich the study sample with the less frequent functionally deficient OCT1 variants, participants were selected based on OCT1 genotype from an internal database at the Institute of Clinical Pharmacology of the University Medical Center Göttingen. All volunteers who are listed in the internal database had agreed to it and the database was approved by the ethics committee of the University of Göttingen. […] Additional subjects with heterozygous genotypes were included to provide a better understanding of the effects of specific variants and the mode of inheritance. All volunteers gave their written informed consent before participation in the study. The study was approved by the ethics committee of the University of Göttingen and the German Federal Institute for Drugs and Medical Devices (BfArM). It was registered at the clinical trials databases Clinicaltrials.gov (NCT02054299) and EudraCT (number 2012-003546-33). […] Volunteers who underwent regular drug treatments other than oral contraceptives or who suffered from any relevant chronic illness, as well as pregnant or lactating women, were not included. All subjects were healthy according to a detailed medical history, medical examination, electrocardiogram, urine status and clinical chemistry, and haematology parameters (sodium, potassium, total bilirubin, aspartate aminotransferase, alanine-aminotransferase, creatinine, C-reactive protein, thyroid-stimulating hormone, haemoglobin, erythrocyte, thrombocyte, and leucocyte counts). […] After centrifugation (13,000 rpm, 15 min, room temperature), two-thirds of the supernatant were transferred to a new reaction tube and evaporated at 40°C under nitrogen flow. The residue was reconstituted under shaking in 0.1% methanoic acid and briefly centrifuged before quantification using a Nexera UHPLC system (Shimadzu, Kyoto, Japan) coupled to an API 4000 tandem mass spectrometer (AB Sciex, Darmstadt, Germany). […] PerkinElmer, Rodgau, Germany) with a Phenomenex C18 pre-column (4 × 2 mm, Phenomenex, Aschaffenburg, Germany). […] The lower limit of quantification was 0.5 ng/ml for AT and 0.1 ng/ml for NT. […] The mass spectrometry detection parameters are listed in Supplementary Table S1. For the study in healthy volunteers, the primary endpoints were the AUCs of plasma AT and NT concentrations. Secondary endpoints were the other pharmacokinetic parameters of AT and NT, as well as heart rate, blood pressure, pupil size effects, and possible adverse events (headache, fatigue, visual or hearing impairments, restlessness, nausea, dizziness, dry mouth, tremor, as well as sensations of hypothermia and heart palpitations determined using a visual analogue scale test). Pharmacokinetic parameters were calculated by non-compartmental analysis using Phoenix 64 WinNonlin version 6.3 (Certara Inc., Princeton, NJ, United States). AUCinf of AT was calculated from the time of dosing using the linear/log trapezoidal rule and extrapolated to infinity based on the last predicted concentration and using the terminal elimination rate constant (lambda z). AUC of NT was calculated from the time of dosing until the last measurement at 48 h using the linear/log trapezoidal rule, as a decline in NT concentrations was not observed in some subjects and extrapolation to infinity thus not possible.

[1] = both sexes, healthy volunteers, 0 active OCT1 alleles (n = 12)
[2] = both sexes, healthy volunteers, 1 active OCT1 allele (n = 9)
[3] = both sexes, healthy volunteers, 2 active OCT1 alleles (n = 14)
[4] = both sexes, healthy volunteers, CYP2C19 activity score 1 (n = 5), mean
[5] = both sexes, healthy volunteers, CYP2C19 activity score 1.5 (n = 2), mean
[6] = both sexes, healthy volunteers, CYP2C19 activity score 2 (n = 16), mean
[7] = both sexes, healthy volunteers, CYP2C19 activity score 2.5 (n = 10), mean
[8] = both sexes, healthy volunteers, CYP2D6 activity 0 (n = 3), mean
[9] = both sexes, healthy volunteers, CYP2D6 activity 0.5 (n = 2), mean
[10] = both sexes, healthy volunteers, CYP2D6 activity 1 (n = 10), mean
[11] = both sexes, healthy volunteers, CYP2D6 activity 1.5 (n = 6), mean
[12] = both sexes, healthy volunteers, CYP2D6 activity 2 (n = 11), mean
[13] = both sexes, healthy volunteers, CYP2D6 activity 2.5 (n = 1), mean
[14] = both sexes, healthy volunteers, CYP2D6 activity 3 (n = 2), mean
[15] = healthy volunteers, CYP2C19 activity score 0 (n = 1), mean
[16] = healthy volunteers, CYP2C19 activity score 3 (n = 1), mean

`CNCCC=C1c2ccccc2CCc2ccccc21` [Nortriptyline, nortriptyline] showed an AUC(0-t) (both sexes, 35 healthy volunteers, read-out: AUC48h (range over all volunteers)) of 39.3 to 284 ng·h/mL, an AUC(0-t) (both sexes, healthy volunteers, 0 active OCT1 alleles (n = 12), read-out: AUC48h) of 90.2 ± 27.1 ng·h/mL and a Cmax [1] of 2.7 ± 0.7 ng/mL. The AUC(0-t) (both sexes, healthy volunteers, 1 active OCT1 allele (n = 9), read-out: AUC48h) was 88.3 ± 32.2 ng·h/mL, the Cmax [2] was 2.6 ± 0.9 ng/mL and the AUC(0-t) (both sexes, healthy volunteers, 2 active OCT1 alleles (n = 14), read-out: AUC48h) was 126 ± 63.5 ng·h/mL. It also gave a Cmax [3] of 3.4 ± 1.4 ng/mL, an AUC(0-t) (both sexes, healthy volunteers, CYP2C19 activity score 1 (n = 5), mean, read-out: AUC48h) of 69.4 ng·h/mL and a Cmax [4] of 2.1 ng/mL. It also gave an AUC(0-t) (both sexes, healthy volunteers, CYP2C19 activity score 1.5 (n = 2), mean, read-out: AUC48h) of 123 ng·h/mL, a Cmax [5] of 3.5 ng/mL and an AUC(0-t) (both sexes, healthy volunteers, CYP2C19 activity score 2 (n = 16), mean, read-out: AUC48h) of 103 ng·h/mL. For the same compound, the Cmax [6] was 3 ng/mL, the AUC(0-t) (both sexes, healthy volunteers, CYP2C19 activity score 2.5 (n = 10), mean, read-out: AUC48h) was 108 ng·h/mL and the Cmax [7] was 3.1 ng/mL. It also gave an AUC(0-t) (both sexes, healthy volunteers, CYP2D6 activity 0 (n = 3), mean, read-out: AUC48h) of 145 ng·h/mL, a Cmax [8] of 3.48 ng/mL and an AUC(0-t) (both sexes, healthy volunteers, CYP2D6 activity 0.5 (n = 2), mean, read-out: AUC48h) of 222 ng·h/mL. For the same compound, the Cmax [9] was 5.54 ng/mL, the AUC(0-t) (both sexes, healthy volunteers, CYP2D6 activity 1 (n = 10), mean, read-out: AUC48h) was 104 ng·h/mL and the Cmax [10] was 2.94 ng/mL. The AUC(0-t) (both sexes, healthy volunteers, CYP2D6 activity 1.5 (n = 6), mean, read-out: AUC48h) was 98.3 ng·h/mL, the Cmax [11] was 2.79 ng/mL and the AUC(0-t) (both sexes, healthy volunteers, CYP2D6 activity 2 (n = 11), mean, read-out: AUC48h) was 81.8 ng·h/mL. It also gave a Cmax [12] of 2.57 ng/mL, an AUC(0-t) (both sexes, healthy volunteers, CYP2D6 activity 2.5 (n = 1), mean, read-out: AUC48h) of 89.1 ng·h/mL and a Cmax [13] of 3.11 ng/mL. The AUC(0-t) (both sexes, healthy volunteers, CYP2D6 activity 3 (n = 2), mean, read-out: AUC48h) was 71.1 ng·h/mL, the Cmax [14] was 2.49 ng/mL and the Tmax [1] was 6.2 ± 1.4 h. The half-life [1] was 46.1 ± 24.4 h, the Tmax [2] was 6.7 ± 1.3 h and the half-life [2] was 56.4 ± 31.3 h. It also gave a Tmax [3] of 11.5 ± 8.7 h, a half-life [3] of 40.1 ± 38.2 h and a Tmax [4] of 6 h. The half-life [4] was 48.2 h, the Tmax [5] was 14.1 h and the half-life [5] was 25.1 h. It also gave a Tmax [6] of 6.6 h, a half-life [6] of 47.7 h and a Tmax [7] of 9.9 h. For the same compound, the half-life [7] was 44.1 h, the Tmax [8] was 18.9 h and the half-life [8] was 92 h. For the same compound, the Tmax [9] was 15.5 h, the half-life [9] was 105 h and the Tmax [10] was 6.2 h. The half-life [10] was 64.2 h, the Tmax [11] was 7 h and the half-life [11] was 51.9 h. For the same compound, the Tmax [12] was 7.7 h, the half-life [12] was 29.9 h and the Tmax [13] was 6 h. It also gave a half-life [13] of 25 h, a Tmax [14] of 6 h and a half-life [14] of 26.9 h. It also gave an AUC(0-t) (both sexes, healthy volunteers, OCT1 genotype *1 / *1 (n 14), mean ± standard deviation, read-out: AUC48h) of 126 ± 63 ng·h/mL, an AUC(0-t) (both sexes, healthy volunteers, OCT1 genotype *1 / *2 (n 3), mean ± standard deviation, read-out: AUC48h) of 115 ± 24 ng·h/mL and an AUC(0-t) (both sexes, healthy volunteers, OCT1 genotype *1 / *3 (n 4), mean ± standard deviation, read-out: AUC48h) of 78 ± 34 ng·h/mL. For the same compound, the AUC(0-t) (both sexes, healthy volunteers, OCT1 genotype *1 / *4 (n 2), mean ± standard deviation, read-out: AUC48h) was 69 ± 17 ng·h/mL, the AUC(0-t) (both sexes, healthy volunteers, OCT1 genotype *2 / *2 (n 3), mean ± standard deviation, read-out: AUC48h) was 109 ± 45 ng·h/mL and the AUC(0-t) (both sexes, healthy volunteers, OCT1 genotype *2 / *3 (n 4), mean ± standard deviation, read-out: AUC48h) was 90 ± 27 ng·h/mL. The AUC(0-t) (both sexes, healthy volunteers, OCT1 genotype *2 / *5 (n 1), read-out: AUC48h) was 83 ng·h/mL, the AUC(0-t) (both sexes, healthy volunteers, OCT1 genotype *3 / *3 (n 3), mean ± standard deviation, read-out: AUC48h) was 77 ± 11 ng·h/mL and the AUC(0-t) (both sexes, healthy volunteers, OCT1 genotype *3 / *4 (n 1), read-out: AUC48h) was 78 ng·h/mL. For the same compound, the AUC(0-t) (healthy volunteers, CYP2C19 activity score 0 (n = 1), mean, read-out: AUC48h) was 39.3 ng·h/mL, the Cmax [15] was 1.05 ng/mL and the AUC(0-t) (healthy volunteers, CYP2C19 activity score 3 (n = 1), mean, read-out: AUC48h) was 284 ng·h/mL. For the same compound, the Cmax [16] was 6.5 ng/mL, the Tmax [15] was 6 h and the half-life [15] was 106 h. For the same compound, the Tmax [16] was 24.9 h and the half-life [16] was 145 h.
